The text below walks through data of patent US4555519A, “Thromboxane synthetase enzyme inhibiting N-[(1H-imidazol-1-yl) and (1H-1,2,4-triazol-1-yl)alkyl]pyridinecarboxamides” (American Cyanamid Company, priority 1984, dated 1985).

The target in assay [1] is T1, thromboxane synthetase enzyme (Rattus norvegicus, UniProt P49430).
T1 construct: endogenous in cells; host or cells: washed platelets from arterial blood of Okamoto-Aoki spontaneously hypertensive rats (Taconic Farms, Germantown, NY)
T1 sequence (P49430 1-533): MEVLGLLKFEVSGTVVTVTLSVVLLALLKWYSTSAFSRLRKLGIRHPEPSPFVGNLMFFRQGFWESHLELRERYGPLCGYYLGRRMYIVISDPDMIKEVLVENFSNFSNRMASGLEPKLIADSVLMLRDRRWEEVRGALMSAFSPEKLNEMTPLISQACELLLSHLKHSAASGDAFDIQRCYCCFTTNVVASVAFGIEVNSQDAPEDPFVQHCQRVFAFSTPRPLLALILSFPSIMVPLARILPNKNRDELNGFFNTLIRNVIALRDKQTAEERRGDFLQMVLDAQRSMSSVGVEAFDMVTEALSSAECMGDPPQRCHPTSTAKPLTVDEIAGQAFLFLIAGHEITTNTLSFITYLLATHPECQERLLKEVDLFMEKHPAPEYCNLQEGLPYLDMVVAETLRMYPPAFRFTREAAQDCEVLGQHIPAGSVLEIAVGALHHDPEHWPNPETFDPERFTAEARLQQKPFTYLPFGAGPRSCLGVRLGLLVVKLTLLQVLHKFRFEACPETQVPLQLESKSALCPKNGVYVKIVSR
Nature of the assay: inhibition of thromboxane (TXA2) formation, TXB2 determined by direct radioimmunoassay in washed rat platelets. It counts as cell-based, Okamoto-Aoki spontaneously hypertensive rats (SHR). Conditions: Dose 10^-4 M; SHR platelets, 10 minutes at 37° C. On the procedure: The inhibition of thromboxane (TXA2) formation was studied by determining the concentration of thromboxane B2 (TXB2), the stable hydrolysis product of TXA2.
Under urethan anesthesia, […] of arterial blood was collected in one ml of 3.2% sodium citrate in a polystyrene tube from Okamoto-Aoki spontaneously hypertensive rats (SHR) (Taconic Farms, Germantown, NY) between 19 and 24 weeks in age. The blood was diluted with 3 ml cold saline and centrifuged at room temperature for 15 minutes at 460 xg. The platelet rich plasma (PRP) was separated. The platelets were isolated by centrifuging the PRP for 10 minutes at 1060 xg and were washed in 4 ml cold oxygenated Krebs phosphate buffer, pH 7.4. The chilled platelets recovered from centrifuging at 800 xg for 10 minutes were resuspended in oxygenated Krebs phosphate buffer and diluted to contain 4.5-6.0×10^4 platelets/μl. Assay samples, prepared on ice, contained 200 μl platelet suspension, 50 μl saline, and 50 μl vehicle or drug under study (OKY-1581, UK-37248-01, 1-benzylimidazole, or indomethacin). The samples were incubated for 10 minutes at 37° C. in a metabolic shaker. The reaction was terminated by immersing the tubes in an ice bath and adding 50 μl of 0.5M citric acid. The samples were centrifuged for 10 minutes in a refrigerated centrifuge and the supernatants thus obtained were decanted and stored at -20° C. The TXB2 content for each sample was determined by a direct radioimmunoassay (RIA) utilizing a TXB2 specific RIA kit purchased from New England Nuclear, Boston, Mass. and expressed as pg TXB2 formed minute^-1 sample^-1, from which the percent inhibition of TXB2 formation was calculated.

A short description of assay [2]: hypotensive activity in spontaneously hypertensive rats, mean arterial blood pressure (method of Chan and Poorvin). It counts as in vivo. Conditions: gavage, 100 mg/kg or less, two doses 24 hours apart; measured 28 hours after initial dose; average MABP of rats used 160±1.5 mm Hg; (no. of rats) in parentheses. The protocol:
The novel compounds of the present invention also are active antihypertensive agents and were tested for hypotensive activity by the method of P. S. Chan and D. Poorvin, Clinical and Experimental Hypertension, 1 (6), 817-830 (1979). Male, 16 week old, spontaneously hypertensive rats of the Okamoto strain, from Taconic Farms, Germantown, N.Y., having an average mean arterial blood pressure of 160±1.5 mm of mercury are used in the test. One to three rats are used per test compound. A rat is dosed by gavage with a test compound, suspended in 2% pre-boiled starch at a concentration of 50 mg/ml, at a dose of 100 mg/kg of body weight or less with 0.9% sodium chloride loading at a dose of 25 ml/kg of body weight. A second identical dose of the test compound without sodium chloride loading is given 24 hours later. At 28 hours after the initial dose the mean arterial blood pressure is measured by the method of Chan and Poorvin vide supra. The procedure is repeated in a second and third rat when necessary.

A word on the inhibition: it is the share of the control response that was lost under treatment. Lower therefore signals a weak effect. For the molecule `Cc1nccn1CCCNC(=O)c1cccnc1Cl` [2-Chloro-N-[3-(2-methyl-1H-imidazol-1-yl)propyl]-3-pyridinecarboxamide], at 100 µM the inhibition in assay [1] was 38%.
Take `O=C(NCCCn1ccnc1)c1ccccn1` [N-[3-(1H-Imidazol-1-yl)propyl]-2-pyridinecarboxamide]: the inhibition at 100 µM in assay [1] is 59%. In assay [2], the “MABP in mm Hg” value came to 127 mm Hg.
`CC(CNC(=O)c1ccc(Cl)nc1)Cn1ccnc1` (stereo not shown) [6-Chloro-N-[3-(1H-imidazol-1-yl)-2-methylpropyl]-3-pyridinecarboxamide]: the inhibition at 100 µM in assay [1] stood at 98%. In addition, the “MABP in mm Hg” value in assay [2] turned out to be 129 mm Hg.
As for `Cc1nccn1CCCNC(=O)c1ccc(Cl)nc1` [6-Chloro-N-[3-(2-methyl-1H-imidazol-1-yl)propyl]-3-pyridinecarboxamide], the inhibition at 100 µM in assay [1] was 44%.
Take `O=C(NCCCCn1ccnc1)c1ccccn1.O=C(O)/C=C/C(=O)O` [N-[4-(1H-Imidazol-1-yl)butyl]-2-pyridinecarboxamide, fumarate]: the inhibition at 100 µM in assay [1] worked out at 82%. For the same molecule, the “MABP in mm Hg” value in assay [2] was 116 mm Hg.
Take `Cc1cn(CCCNC(=O)c2cccnc2)cn1` [N--[3-(4-Methyl-1H--imidazol-1-yl)propyl]-3-pyridinecarboxamide]: the inhibition at 100 µM in assay [1] came out at 50%. The “MABP in mm Hg” value in assay [2] worked out at 123 mm Hg.
Taken in the same sequence, the figures for `Cc1cn(CCCNC(=O)c2ccc(Cl)nc2)cn1` [6-Chloro-N-[3-(4-methyl-1H-imidazol-1-yl)propyl]-3-pyridinecarboxamide] were 86% and 139 mm Hg.
The molecule `O=C(NCCCCn1ccnc1)c1cccnc1Cl` [2-Chloro-N--[4-(1H--imidazol-1-yl)butyl]-3-pyridinecarboxamide] displayed an inhibition at 100 µM in assay [1] of 90%.
Molecule `O=C(NCCCn1ccnc1-c1ccccc1)c1ccccn1` [N-[3-(2-Phenyl-1H-imidazol-1-yl)propyl]-2-pyridinecarboxamide] gave an inhibition at 100 µM in assay [1] of 30%.
On the same count and under the same terms, then `O=C(NCCCn1ccnc1)c1cccnc1Cl` [2-Chloro-N--[3-(1H--imidazol-1-yl)propyl]-3-pyridinecarboxamide], with 58%; and `O=C(NCCCn1ccnc1-c1ccccc1)c1ccc(Cl)nc1` [6-Chloro-N-[3-(2-phenyl-1H-imidazol-1-yl)propyl]-3-pyridinecarboxamide], with 56%.
The same measure, in the same setting: then `O=C(NCCCCn1ccnc1)c1ccc(Cl)nc1` [6-Chloro-N--[4-(1H--imidazol-1-yl)butyl]-3-pyridinecarboxamide], with 94%.
In assay [1], `CC(CCNC(=O)c1ccc(Cl)nc1)n1ccnc1` (stereo not shown) [6-Chloro-N-[3-(1H-imidazol-1-yl)butyl]-3-pyridinecarboxamide] gave an inhibition at 100 µM of 98%. Further, the “MABP in mm Hg” value in assay [2] is 111 mm Hg.
`Cc1cn(CCCNC(=O)c2ccccn2)cn1` [N--[3-(4-Methyl-1H--imidazol-1-yl)propyl]-2-pyridinecarboxamide] had an inhibition at 100 µM in assay [1] of 84%. The “MABP in mm Hg” value in assay [2] was 140 mm Hg.
For `O=C(NCCCn1ccnc1)c1cccnc1` [N--[3-(1H--Imidazol-1-yl)propyl]-3-pyridinecarboxamide] the same measures were 83% and 138 mm Hg.
Regarding `O=C(NCCCn1cncn1)c1ccc(Cl)nc1` [6-Chloro-N-[3-(1H-1,2,4-triazol-1-yl)propyl]-3-pyridinecarboxamide], the inhibition at 100 µM in assay [1] was 67%. Moreover, the “MABP in mm Hg” value in assay [2] came out at 140 mm Hg.
Molecule `Cc1cn(CCCNC(=O)c2cccnc2Cl)cn1` [2-Chloro-N--[3-(4-methyl-1H--imidazol-1-yl)propyl]-3-pyridinecarboxamide] yielded an inhibition at 100 µM in assay [1] of 50%.
In assay [1], `O=C(NCCCn1ccnc1)c1ccc(Cl)nc1` [6-Chloro-N--[3-(1H--imidazol-1-yl)propyl]-3-pyridinecarboxamide] had an inhibition at 100 µM of 88%. In addition, in assay [2], the “MABP in mm Hg” value is reported as 132 mm Hg.
